Counter-ions that a name gives are not always drawn. Like-named read-outs stand apart in the source and are kept apart here.
Molecular target: human 5-HT6 receptor (Homo sapiens (Human), UniProt P50406)
Test: 5-HT6 radioligand binding assay (SPA format, [N-methyl-3H]-LSD)
Details: human 5-HT6 receptor membranes, 10 nM [N-methyl-3H]-LSD, Ki by Cheng-Prusoff, read-out: human 5HT6 Ki
Method: The relative affinities of the various compounds for the 5-HT6 receptor were measured in a radioligand binding assay, using a scintillation proximity assay (SPA) format.
For binding analysis vs. the human receptor, samples were incubated in 50 mM Tris-HCl, pH 7.5, 5 mM MgCl2, 1 mM EDTA (4% DMSO final) with 10 nM [N-methyl-^3H]-LSD (Perkin Elmer), 2.5 ng of human 5-HT6 receptor membranes (Millipore) and 50 μg SPA beads (PVT-PEI-WGA, GE Healthcare) per well in a final volume of 0.2 mL. […] Binding reactions were performed in PicoPlate96 microtiter plates (Perkin Elmer) by consecutively adding 50 μL of each competing compound or buffer, SPA beads, radioligand and 5-HT6 receptor membranes. After an overnight incubation at room temperature on a Nutator mixer, plates were centrifuged for 15 min at 1,500 rpm, followed by incubation in the dark for 10 min. […] Total binding control contained compound dilution buffer only; nonspecific binding is determined in the presence of 100 μM 5-hydroxytryptamine. Specific binding was determined by subtracting nonspecific binding from total binding.
All experiments were performed in duplicate using ten concentrations of competing ligand, with clozapine included as a control in every run. IC50 values were determined from specific binding data using XLfit4.1 curve fitting software from IDBS Ltd. The inhibition constant (Ki) was calculated using the Cheng-Prusoff equation: (Ki=IC50/(1+(L/KD)), where L=concentration of radioligand in the assay, and KD=affinity of the radioligand for the receptor.

Chain of human 5-HT6 receptor (P50406 whole entry): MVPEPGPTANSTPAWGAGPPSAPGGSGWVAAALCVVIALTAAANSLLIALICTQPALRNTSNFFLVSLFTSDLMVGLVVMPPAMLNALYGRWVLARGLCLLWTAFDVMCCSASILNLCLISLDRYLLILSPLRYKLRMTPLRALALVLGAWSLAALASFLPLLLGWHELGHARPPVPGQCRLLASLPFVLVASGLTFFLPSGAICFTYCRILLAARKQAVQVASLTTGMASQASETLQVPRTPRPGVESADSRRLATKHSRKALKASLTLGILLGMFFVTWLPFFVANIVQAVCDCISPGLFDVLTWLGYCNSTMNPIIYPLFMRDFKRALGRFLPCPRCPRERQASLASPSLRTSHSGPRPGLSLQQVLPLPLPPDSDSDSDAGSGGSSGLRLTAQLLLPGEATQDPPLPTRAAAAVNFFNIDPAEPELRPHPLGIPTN

Row | Compound | Ki (hydrochloride) | Ki
1 | CC1NCCc2oc3c(Cl)cc(S(=O)(=O)c4ccccc4)cc3c21 (racemic) [Example 81a, 6-chloro-1-methyl-8-(phenylsulfonyl)-1,2,3,4-tetrahydrobenzofuro[3,2-c]pyridine hydrochloride] | 0.35 nM | 
2 | CC1Cc2oc3c(Cl)cc(S(=O)(=O)c4ccccc4)cc3c2CN1 (racemic) [Example 81b, 6-chloro-3-methyl-8-(phenylsulfonyl)-1,2,3,4-tetrahydrobenzofuro[3,2-c]pyridine hydrochloride] | 19 nM | 
3 | O=S(=O)(c1ccccc1)c1cc(Cl)c2oc3c(c2c1)CC(O)CC3 (racemic) [Example 97, 6-chloro-8-(phenylsulfonyl)-1,2,3,4-tetrahydrodibenzo[b,d]furan-2-ol] |  | 1.7 nM
4 | CC1Cc2oc3c(Cl)cc(S(=O)(=O)c4ccccc4)cc3c2CN1 (single isomer, unassigned; (+)) [Example 83b, (+) 6-chloro-3-methyl-8-(phenylsulfonyl)-1,2,3,4-tetrahydrobenzofuro[3,2-c]pyridine hydrochloride] | 16 nM | 
5 | CC1NCCc2oc3c(Cl)cc(S(=O)(=O)c4ccccc4)cc3c21 (single isomer, unassigned; (-)) [Example 82b, (−) 6-chloro-1-methyl-8-(phenylsulfonyl)-1,2,3,4-tetrahydrobenzofuro[3,2-c]pyridine hydrochloride] | 0.15 nM | 
6 | O=S(=O)(c1cccc(C(F)(F)F)c1)c1cc(Cl)c2oc3c(c2c1)CNCC3 [Example 45, 6-Chloro-8-(3-trifluoromethylphenylsulfonyl)-1,2,3,4-tetrahydrobenzofuro[3,2-c]pyridine hydrochloride] |  | 0.48 nM
7 | O=S(=O)(c1cccc(Cl)c1)c1cc(Cl)c2oc3c(c2c1)CNCC3 [Example 46, 6-Chloro-8-(3-chlorophenylsulfonyl)-1,2,3,4-tetrahydrobenzofuro[3,2-c]pyridine hydrochloride] |  | 0.35 nM
8 | O=S(=O)(c1cc(Cl)c2oc3c(c2c1)CNCC3)n1ccc2ccccc21 [Example 51, 8-(1H-Indol-1-ylsulfonyl)-6-chloro-1,2,3,4-tetrahydrobenzofuro[3,2-c]pyridine hydrochloride] |  | 0.2 nM
9 | Cc1cc(S(=O)(=O)c2ccccc2)cc2c3c(oc12)CCNC3 [Example 53, 6-Methyl-8-(phenylsulfonyl)-1,2,3,4-tetrahydrobenzofuro[3,2-c]pyridine hydrochloride] |  | 0.22 nM
10 | O=S(=O)(c1cccc(F)c1)c1ccc2c3c(oc2c1)CC1CCC3N1 (stereo not shown) [Example 66, 3-(3-Fluorophenyl)sulfonyl-6,7,8,9,10-pentahydro-7,10-epiminocyclohepta[b]benzofuran hydrochloride] |  | 533 nM
11 | COc1cc(S(=O)(=O)c2ccc3[nH]ccc3c2)cc2c3c(oc12)CCNC3 [Example 70, 8-(1H-indol-5-ylsulfonyl)-6-methoxy-1,2,3,4-tetrahydrobenzofuro[3,2-c]pyridine hydrochloride] |  | 0.083 nM
12 | O=S(=O)(c1cccc(C2CCOC2)c1)c1cc(Cl)c2oc3c(c2c1)CNCC3 (stereo not shown) [Example 71, 6-chloro-8-(3-(tetrahydrofuran-3-yl)phenylsulfonyl)-1,2,3,4-tetrahydrobenzofuro[3,2-c]pyridine hydrochloride] |  | 2 nM
13 | O=S(=O)(c1ccc(CO)cc1)c1cc(Cl)c2oc3c(c2c1)CNCC3 [Example 72, (4-((6-chloro-1,2,3,4-tetrahydrobenzofuro[3,2-c]pyridin-8-yl)sulfonyl)phenyl)methanol hydrochloride] |  | 12 nM
14 | N#Cc1cc(S(=O)(=O)c2cccc(F)c2)cc2c3c(oc12)CCNC3 [Example 73, 8-(3-fluorophenylsulfonyl)-1,2,3,4-tetrahydrobenzofuro[3,2-c]pyridine-6-carbonitrile hydrochloride] |  | 4.3 nM
15 | O=S(=O)(c1ccccc1)c1cc(CO)c2oc3c(c2c1)CNCC3 [Example 74, (8-(phenylsulfonyl)-1,2,3,4-tetrahydrobenzofuro[3,2-c]pyridin-6-yl)methanol hydrochloride] |  | 13 nM
16 | O=S(=O)(c1ccccc1)c1cc(-n2cccn2)c2oc3c(c2c1)CNCC3 [Example 76, 8-(phenylsulfonyl)-6-(1H-pyrazol-1-yl)-1,2,3,4-tetrahydrobenzofuro[3,2-c]pyridine hydrochloride] |  | 9.3 nM
17 | O=S(=O)(c1ccccc1)c1cc(-c2cn[nH]c2)c2oc3c(c2c1)CNCC3 [Example 77, 8-(phenylsulfonyl)-6-(1H-pyrazol-4-yl)-1,2,3,4-tetrahydrobenzofuro[3,2-c]pyridine hydrochloride] |  | 28 nM
18 | CNC(=O)c1cc(S(=O)(=O)c2ccccc2)cc2c3c(oc12)CCNC3 [Example 78, N-methyl-8-(phenylsulfonyl)-1,2,3,4-tetrahydrobenzofuro[3,2-c]pyridine-6-carboxamide hydrochloride] |  | 607 nM
19 | O=S(=O)(c1ccccc1)c1cc(Cl)c2oc3c(c2c1)CNC(CO)C3 (stereo not shown) [Example 86, (6-chloro-8-(phenylsulfonyl)-1,2,3,4-tetrahydrobenzofuro[3,2-c]pyridin-3-yl)methanol hydrochloride] |  | 522 nM
20 | O=S(=O)(c1ccccc1)c1cc(Cl)c2oc3c(c2c1)C(CF)NCC3 (stereo not shown) [Example 87, 6-chloro-1-fluoromethyl-8-phenylsulfonyl-1,2,3,4-tetrahydrobenzofuro[3,2-c]pyridine hydrochloride] |  | 4 nM
21 | CN(C)C(=O)C1NCCc2oc3c(Cl)cc(S(=O)(=O)c4ccccc4)cc3c21 (stereo not shown) [Example 88, 6-chloro-N,N-dimethyl-8-(phenylsulfonyl)-1,2,3,4-tetrahydrobenzofuro[3,2-c]pyridine-1-carboxamide hydrochloride] |  | 252 nM
22 | O=S(=O)(c1ccccc1)c1cc(Cl)c2oc3c(c2c1)CCNCC3 [Example 90, 7-chloro-9-(phenylsulfonyl)-2,3,4,5-tetrahydro-1H-benzofuro[2,3-d]azepine hydrochloride] |  | 0.25 nM
23 | O=S(=O)(c1cc(Cl)c2oc3c(c2c1)CNCC3)c1ccccc1Cl [Example 100] |  | 0.77 nM
24 | O=S(=O)(c1cc(Cl)c2oc3c(c2c1)CNCC3)c1ccccc1OC(F)(F)F [Example 102] |  | 3.3 nM
25 | O=S(=O)(c1cccc(-n2cccn2)c1)c1cc(Cl)c2oc3c(c2c1)CNCC3 [Example 103] |  | 2.2 nM

Row | Compound | Ki (hydrochloride) | Ki
26 | O=S(=O)(c1ccc(-n2cccn2)cc1)c1cc(Cl)c2oc3c(c2c1)CNCC3 [Example 104] |  | 26 nM
27 | O=S(=O)(c1ccc2c(c1)COCC2)c1cc(Cl)c2oc3c(c2c1)CNCC3 [Example 105] |  | 13 nM
28 | O=S(=O)(c1ccc2c(c1)CCOC2)c1cc(Cl)c2oc3c(c2c1)CNCC3 [Example 106] |  | 2.5 nM
29 | CC(C)(O)c1cccc(S(=O)(=O)c2cc(Cl)c3oc4c(c3c2)CNCC4)c1 [Example 107] |  | 0.79 nM
30 | CC(C)(O)c1ccc(S(=O)(=O)c2cc(Cl)c3oc4c(c3c2)CNCC4)cc1 [Example 108] |  | 1.3 nM
31 | COCc1ccc(S(=O)(=O)c2cc(Cl)c3oc4c(c3c2)CNCC4)cc1 [Example 109] |  | 14 nM
32 | O=S(=O)(c1cccc(CO)c1)c1cc(Cl)c2oc3c(c2c1)CNCC3 [Example 110] |  | 4.4 nM
33 | O=S(=O)(c1ccc(OC(F)F)cc1)c1cc(Cl)c2oc3c(c2c1)CNCC3 [Example 113] |  | 2.2 nM
34 | O=S(=O)(c1ccccc1)c1cc(Cl)c2oc3c(c2c1)CN(CCC(F)(F)F)CC3 [Example 114] |  | 19 nM
35 | O=S(=O)(c1ccccc1)c1cc(Cl)c2oc3c(c2c1)CN(c1cccnc1)CC3 [Example 115] |  | 123 nM
36 | CN1CCc2oc3c(Cl)cc(S(=O)(=O)c4ccccc4)cc3c2C1 [Example 116] |  | 1 nM
37 | CCN1CCc2oc3c(Cl)cc(S(=O)(=O)c4ccccc4)cc3c2C1 [Example 117] |  | 1.2 nM
38 | O=S(=O)(c1cncc(Cl)c1)c1cc(Cl)c2oc3c(c2c1)CNCC3 [Example 119] |  | 20 nM
39 | O=S(=O)(c1cccnc1)c1cc(Cl)c2oc3c(c2c1)CNCC3 [Example 120] |  | 26 nM
40 | O=S(=O)(c1cncc(C(F)(F)F)c1)c1cc(Cl)c2oc3c(c2c1)CNCC3 [Example 121] |  | 29 nM
41 | O=S(=O)(c1cc(Cl)c2oc3c(c2c1)CNCC3)c1ccccc1CO [Example 122] |  | 5.4 nM
42 | COc1cccc(S(=O)(=O)c2cc(Cl)c3oc4c(c3c2)CNCC4)c1 [Example 123] |  | 1.2 nM
43 | Cn1ncc2cc(S(=O)(=O)c3cc(Cl)c4oc5c(c4c3)CNCC5)ccc21 [Example 124] |  | 37 nM
44 | O=S(=O)(c1cc(F)cc(Cl)c1)c1cc(Cl)c2oc3c(c2c1)CNCC3 [Example 125] |  | 2.3 nM
45 | O=S(=O)(c1ccc(C2CCO2)cc1)c1cc(Cl)c2oc3c(c2c1)CNCC3 (stereo not shown) [Example 126] |  | 10 nM
46 | O=S(=O)(c1ccc(F)c(F)c1)c1cc(Cl)c2oc3c(c2c1)CNCC3 [Example 127] |  | 4 nM
47 | O=S(=O)(c1ccc(F)cc1)c1cc(Cl)c2oc3c(c2c1)CNCC3 [Example 128] |  | 3 nM
48 | O=S(=O)(c1cc(F)cc(F)c1)c1cc(Cl)c2oc3c(c2c1)CNCC3 [Example 129] |  | 9.9 nM
49 | O=S(=O)(c1cc(Cl)cc(Cl)c1)c1cc(Cl)c2oc3c(c2c1)CNCC3 [Example 130] |  | 6 nM

From US9067949B2, “Benzofuro[3,2-c] pyridines and related analogs as serotonin sub-type 6 (5-HT6) modulators for the treatment of obesity, metabolic syndrome, cognition and schizophrenia” (Albany Molecular Research, Inc., priority 2011, dated 2015)
